Data as given in ChEMBL document CHEMBL1153651, “Synthesis and biology of the rigidified glutamate analogue, trans-2-carboxyazetidine-3-acetic acid (t-CAA)” (Bioorg Med Chem Lett, 1996).

Experiments:
Rattus norvegicus [1] = species: Rattus norvegicus; assay: Compound was tested in vitro for binding affinity against calcium chloride dependent glutamate uptake site, using [3H]L-AP4 as the radioligand in rat cortical membranes.; format: functional
[2] = molecular target: Glutamate receptor ionotropic, kainate 3 (Rattus norvegicus, UniProt P42264); assay: Compound was tested in vitro for binding affinity against Ionotropic glutamate receptor kainate using [3H]kainate as the radioligand.
[3] = molecular target: T1, Metabotropic glutamate receptor 2 (Homo sapiens, UniProt Q14416); assay: Compound was tested for its agonist activity against mGluR 2 receptor in CHO cells; format: functional, cell-based; details: Cricetulus griseus
Target sequence in this assay (Q14416 19-872 limits assumed): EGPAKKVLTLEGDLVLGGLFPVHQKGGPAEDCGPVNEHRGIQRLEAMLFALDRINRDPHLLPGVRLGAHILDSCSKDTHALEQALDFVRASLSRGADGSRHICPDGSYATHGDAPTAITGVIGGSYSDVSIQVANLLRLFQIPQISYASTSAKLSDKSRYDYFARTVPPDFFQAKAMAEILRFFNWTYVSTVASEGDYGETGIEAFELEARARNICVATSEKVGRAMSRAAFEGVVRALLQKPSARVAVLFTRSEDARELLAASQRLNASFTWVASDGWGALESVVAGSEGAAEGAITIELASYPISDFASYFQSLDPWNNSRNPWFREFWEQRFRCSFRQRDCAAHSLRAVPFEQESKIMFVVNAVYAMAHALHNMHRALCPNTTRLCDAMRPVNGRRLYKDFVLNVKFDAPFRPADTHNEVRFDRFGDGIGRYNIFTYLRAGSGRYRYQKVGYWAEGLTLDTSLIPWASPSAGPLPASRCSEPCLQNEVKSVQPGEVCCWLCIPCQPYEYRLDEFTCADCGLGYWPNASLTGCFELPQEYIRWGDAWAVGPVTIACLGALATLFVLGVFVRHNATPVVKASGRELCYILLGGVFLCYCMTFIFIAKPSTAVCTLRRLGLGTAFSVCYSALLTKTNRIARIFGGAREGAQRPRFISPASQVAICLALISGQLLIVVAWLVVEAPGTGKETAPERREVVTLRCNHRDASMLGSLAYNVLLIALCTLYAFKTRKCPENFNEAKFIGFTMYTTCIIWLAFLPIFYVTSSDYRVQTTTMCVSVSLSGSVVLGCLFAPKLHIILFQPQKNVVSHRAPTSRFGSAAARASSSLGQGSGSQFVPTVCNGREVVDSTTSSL

[4] = molecular target: T2, Metabotropic glutamate receptor 6 (Homo sapiens, UniProt O15303); assay: Compound was tested for its agonist activity against mGluR 6 receptor in CHO cells; format: functional, cell-based; details: Cricetulus griseus
Glutamate NMDA receptor = assay: Compound was tested in vitro for binding affinity against NMDA receptor, using [3H]CPP as the radioligand in rat cerebral cortical membranes.; format: cell membranes
[5] = molecular target: Glutamate receptor ionotropic, AMPA (Rattus norvegicus, UniProt P19490+P19491+P19492+P19493); assay: Compound was tested in vitro for binding affinity against Ionotropic glutamate receptor AMPA, using [3H]AMPA as the radioligand in rat cerebral cortical membranes.; format: cell membranes
[6] = molecular target: Metabotropic glutamate receptor 1 (Rattus norvegicus, UniProt P23385); assay: Compound was tested in vitro for binding affinity against mGluR1a metabotropic glutamate receptor, using [3H]glutamate as the radioligand.
[7] = molecular target: T2, Metabotropic glutamate receptor 6; assay: Compound was tested for its antagonist activity against mGluR 6 receptor in CHO cells.; format: functional, cell-based, Cricetulus griseus
[8] = molecular target: T2, Metabotropic glutamate receptor 6; assay: Compound was tested for its agonist activity against mGluR 6 receptor in CHO cells.; format: functional, cell-based, Cricetulus griseus
[9] = molecular target: Metabotropic glutamate receptor 1 (Homo sapiens, UniProt Q13255); assay: Compound was tested for its agonist activity against mGluR1a receptor in CHO cells.; format: functional, cell-based, Cricetulus griseus
[10] = molecular target: Metabotropic glutamate receptor 4 (Rattus norvegicus, UniProt P31423); assay: Compound was tested in vitro for binding affinity against mGluR4a metabotropic glutamate receptor, using [3H]L-AP4 as the radioligand.
[11] = molecular target: T1, Metabotropic glutamate receptor 2; assay: Compound was tested for its agonist activity against mGluR 2 receptor in CHO cells.; format: functional, cell-based, Cricetulus griseus
Target sequence in this assay (Q14416 whole entry): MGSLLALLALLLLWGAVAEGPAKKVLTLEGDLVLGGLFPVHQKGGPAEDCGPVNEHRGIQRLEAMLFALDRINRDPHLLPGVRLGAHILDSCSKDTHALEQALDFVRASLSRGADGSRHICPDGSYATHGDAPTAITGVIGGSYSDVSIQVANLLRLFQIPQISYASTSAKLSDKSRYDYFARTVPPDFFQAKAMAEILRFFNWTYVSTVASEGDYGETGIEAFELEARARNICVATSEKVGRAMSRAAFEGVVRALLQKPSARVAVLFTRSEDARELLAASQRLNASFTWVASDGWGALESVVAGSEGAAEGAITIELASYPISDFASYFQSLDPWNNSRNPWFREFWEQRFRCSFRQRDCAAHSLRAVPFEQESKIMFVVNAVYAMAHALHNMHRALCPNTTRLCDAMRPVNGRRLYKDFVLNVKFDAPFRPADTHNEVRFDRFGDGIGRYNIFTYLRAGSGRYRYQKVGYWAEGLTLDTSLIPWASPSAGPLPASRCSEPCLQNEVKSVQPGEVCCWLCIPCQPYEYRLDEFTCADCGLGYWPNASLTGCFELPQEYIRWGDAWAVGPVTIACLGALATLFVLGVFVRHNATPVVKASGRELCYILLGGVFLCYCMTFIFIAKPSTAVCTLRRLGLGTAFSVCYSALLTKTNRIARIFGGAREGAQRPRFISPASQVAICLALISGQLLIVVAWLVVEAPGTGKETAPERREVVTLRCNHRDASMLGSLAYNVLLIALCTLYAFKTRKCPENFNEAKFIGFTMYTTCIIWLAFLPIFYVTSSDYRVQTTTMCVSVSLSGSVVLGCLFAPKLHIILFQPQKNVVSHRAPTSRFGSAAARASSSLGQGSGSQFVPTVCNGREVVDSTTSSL

[12] = molecular target: T3, Metabotropic glutamate receptor 5 (Homo sapiens, UniProt P41594); assay: Compound was tested for its agonist activity against mGluR 5a receptor in CHO cells.; format: functional, cell-based, Cricetulus griseus
[13] = molecular target: T1, Metabotropic glutamate receptor 2; assay: Compound was tested for its antagonist activity against mGluR 2 receptor in CHO cells.; format: functional, cell-based, Cricetulus griseus
Target sequence in this assay (Q14416 whole entry): as above

Rattus norvegicus [14] = species: Rattus norvegicus; assay: Compound was tested in vitro for binding affinity against sodium dependent [3H]glu-uptake into rat cortical synaptosomes, using [3H]-glutamate as the radioligand.; format: functional; details: Brain
Glutamate receptor 1 = Glutamate receptor 1 (Rattus norvegicus, UniProt P19490); assay: Compound was tested in vitro for binding affinity against Ionotropic glutamate receptor AMPA, using [3H]TCP as the radioligand.
[15] = molecular target: T3, Metabotropic glutamate receptor 5; assay: Compound was tested for its agonist activity against mGluR 5a receptor in CHO cells; format: functional, cell-based; details: Cricetulus griseus

T2 sequence (O15303 whole entry): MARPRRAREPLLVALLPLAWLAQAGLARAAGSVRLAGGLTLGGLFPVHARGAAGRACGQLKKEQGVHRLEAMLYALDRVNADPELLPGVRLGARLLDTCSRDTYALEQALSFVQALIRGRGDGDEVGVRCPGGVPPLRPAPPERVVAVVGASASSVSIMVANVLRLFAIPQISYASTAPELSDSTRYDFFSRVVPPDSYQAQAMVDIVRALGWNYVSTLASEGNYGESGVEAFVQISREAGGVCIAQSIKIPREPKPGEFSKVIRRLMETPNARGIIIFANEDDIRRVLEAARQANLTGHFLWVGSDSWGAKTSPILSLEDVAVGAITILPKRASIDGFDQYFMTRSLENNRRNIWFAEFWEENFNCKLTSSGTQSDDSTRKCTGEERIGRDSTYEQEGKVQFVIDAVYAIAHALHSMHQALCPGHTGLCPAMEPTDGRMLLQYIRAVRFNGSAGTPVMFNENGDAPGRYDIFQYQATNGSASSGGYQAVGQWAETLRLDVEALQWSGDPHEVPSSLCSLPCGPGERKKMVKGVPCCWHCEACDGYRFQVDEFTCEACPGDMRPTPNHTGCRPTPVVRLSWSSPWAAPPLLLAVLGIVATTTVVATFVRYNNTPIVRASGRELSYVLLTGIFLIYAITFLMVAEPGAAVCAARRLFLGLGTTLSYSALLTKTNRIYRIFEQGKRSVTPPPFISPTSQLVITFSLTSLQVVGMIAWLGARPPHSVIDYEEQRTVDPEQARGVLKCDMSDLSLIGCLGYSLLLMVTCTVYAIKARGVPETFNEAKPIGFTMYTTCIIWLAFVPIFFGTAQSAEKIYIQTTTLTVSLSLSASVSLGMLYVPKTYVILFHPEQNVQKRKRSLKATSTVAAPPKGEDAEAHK
Sequence of Metabotropic glutamate receptor 1 (Homo sapiens, UniProt Q13255) (Q13255 whole entry): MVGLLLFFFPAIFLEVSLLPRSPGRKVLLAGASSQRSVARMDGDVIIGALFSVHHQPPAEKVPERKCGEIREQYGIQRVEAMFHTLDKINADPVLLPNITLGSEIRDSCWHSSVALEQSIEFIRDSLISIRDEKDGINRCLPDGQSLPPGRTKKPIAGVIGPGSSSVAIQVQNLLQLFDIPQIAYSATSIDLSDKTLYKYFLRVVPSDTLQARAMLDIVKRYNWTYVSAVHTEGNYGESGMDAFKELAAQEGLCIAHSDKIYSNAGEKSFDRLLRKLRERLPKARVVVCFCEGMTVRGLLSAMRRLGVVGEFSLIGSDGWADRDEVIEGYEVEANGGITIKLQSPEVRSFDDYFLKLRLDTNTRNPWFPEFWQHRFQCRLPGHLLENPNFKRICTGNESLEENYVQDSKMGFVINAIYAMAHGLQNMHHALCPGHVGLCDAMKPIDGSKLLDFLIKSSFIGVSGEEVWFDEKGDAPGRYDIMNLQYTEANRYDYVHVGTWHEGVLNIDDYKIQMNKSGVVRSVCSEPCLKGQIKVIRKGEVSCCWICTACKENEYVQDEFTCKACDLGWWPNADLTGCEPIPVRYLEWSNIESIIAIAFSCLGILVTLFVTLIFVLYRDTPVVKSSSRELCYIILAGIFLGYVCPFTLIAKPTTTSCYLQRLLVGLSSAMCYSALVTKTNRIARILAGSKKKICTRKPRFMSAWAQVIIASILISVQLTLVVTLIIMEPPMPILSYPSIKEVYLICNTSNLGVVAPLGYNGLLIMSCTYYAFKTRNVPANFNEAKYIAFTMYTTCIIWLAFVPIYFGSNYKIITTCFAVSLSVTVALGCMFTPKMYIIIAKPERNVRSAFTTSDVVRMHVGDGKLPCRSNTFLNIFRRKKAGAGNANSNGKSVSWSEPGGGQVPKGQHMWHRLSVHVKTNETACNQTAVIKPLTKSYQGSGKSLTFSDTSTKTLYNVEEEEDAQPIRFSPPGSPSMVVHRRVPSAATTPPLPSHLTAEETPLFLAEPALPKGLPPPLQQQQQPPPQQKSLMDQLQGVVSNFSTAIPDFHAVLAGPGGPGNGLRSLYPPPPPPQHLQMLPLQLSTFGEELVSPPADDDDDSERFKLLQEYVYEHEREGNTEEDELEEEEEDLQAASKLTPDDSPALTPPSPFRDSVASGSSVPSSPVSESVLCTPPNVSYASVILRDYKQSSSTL
Sequence of Glutamate receptor ionotropic, kainate 3 (P42264 whole entry): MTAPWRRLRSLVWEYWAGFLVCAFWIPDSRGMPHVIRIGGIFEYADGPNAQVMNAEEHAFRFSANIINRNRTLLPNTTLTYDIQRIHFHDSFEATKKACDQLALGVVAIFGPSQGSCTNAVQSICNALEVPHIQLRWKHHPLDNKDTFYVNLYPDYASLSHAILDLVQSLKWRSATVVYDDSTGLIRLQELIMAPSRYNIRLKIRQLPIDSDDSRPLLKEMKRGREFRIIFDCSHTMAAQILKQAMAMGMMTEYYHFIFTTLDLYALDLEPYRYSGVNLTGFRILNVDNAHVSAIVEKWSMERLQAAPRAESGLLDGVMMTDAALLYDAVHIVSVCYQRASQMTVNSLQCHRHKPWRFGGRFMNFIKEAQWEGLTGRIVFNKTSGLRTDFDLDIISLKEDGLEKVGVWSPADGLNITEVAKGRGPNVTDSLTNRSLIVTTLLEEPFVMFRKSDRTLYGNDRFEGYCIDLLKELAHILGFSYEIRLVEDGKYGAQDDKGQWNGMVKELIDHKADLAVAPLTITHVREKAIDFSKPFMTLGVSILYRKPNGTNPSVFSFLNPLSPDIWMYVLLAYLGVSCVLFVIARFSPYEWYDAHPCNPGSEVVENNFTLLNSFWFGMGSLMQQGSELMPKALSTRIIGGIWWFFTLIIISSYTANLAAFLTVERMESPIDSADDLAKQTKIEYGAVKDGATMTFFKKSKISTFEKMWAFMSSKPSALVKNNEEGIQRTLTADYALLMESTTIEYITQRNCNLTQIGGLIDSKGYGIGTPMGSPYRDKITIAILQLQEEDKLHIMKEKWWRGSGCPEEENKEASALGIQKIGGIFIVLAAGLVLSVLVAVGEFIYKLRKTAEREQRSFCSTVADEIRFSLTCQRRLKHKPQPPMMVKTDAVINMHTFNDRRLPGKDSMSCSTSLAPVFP

In the case of `O=C(O)C[C@H]1CN[C@@H]1C(=O)O`, the IC50 (Rattus norvegicus [1]) is reported as 33 µM, the IC50 [2] is reported as 0.7 µM and the Max response [3] is reported as 0%. The inhibition ([3]; concentration not given here) was 40%, the Max response [4] was 17% and the inhibition ([4]; concentration not given here) was 0%. It also gave an IC50 (Glutamate NMDA receptor) of 49 µM, an IC50 [5] of 13 µM and an IC50 [6] of 12 µM. For the same compound, the IC50 [7] was greater than 300 µM, the IC50 [8] was greater than 300 µM and the EC50 [9] was 210 µM. The IC50 [10] was 315 µM, the EC50 [11] was greater than 600 µM and the EC50 [12] was 105 µM. For the same compound, the IC50 [13] was greater than 600 µM, the IC50 (Rattus norvegicus [14]) was 5 µM and the IC50 (Glutamate receptor 1) was greater than 660 µM. The Max response [15] was 95%.
